Molecular target: Glycogen synthase kinase-3 beta (Homo sapiens, UniProt P49841)
Test: GSK-3β activity assay
Experimental: In a typical assay, 10 µL of test compound of different concentrations (dissolved in dimethyl sulfoxide [DMSO] and diluted with assay buffer) and 10 µL (20 ng) of enzyme were added to each well followed by 20 µL of assay buffer containing 25 µM substrate and 1 µM ATP. The final DMSO concentration in the reaction mixturewas less than 1%. After incubation at 30 °C for 30 min, the enzymatic reaction was quenched with 40 µL of Kinase-Glo reagent. Luminescence was recorded after 10 min using Infinite F200 PRO multimode reader (Tecan).

Sequence of Glycogen synthase kinase-3 beta (P49841 whole entry): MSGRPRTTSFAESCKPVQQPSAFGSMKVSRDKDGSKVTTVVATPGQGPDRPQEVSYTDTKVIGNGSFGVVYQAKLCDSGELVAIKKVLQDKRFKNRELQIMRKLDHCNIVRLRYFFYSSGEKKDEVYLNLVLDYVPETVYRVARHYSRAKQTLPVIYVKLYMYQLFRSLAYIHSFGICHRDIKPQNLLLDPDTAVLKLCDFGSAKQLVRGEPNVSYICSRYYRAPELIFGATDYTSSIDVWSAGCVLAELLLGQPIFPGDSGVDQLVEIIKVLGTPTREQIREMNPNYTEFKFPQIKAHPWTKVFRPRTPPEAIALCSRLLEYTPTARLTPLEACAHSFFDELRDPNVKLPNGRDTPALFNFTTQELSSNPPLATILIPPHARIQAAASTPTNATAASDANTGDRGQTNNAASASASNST

## Cn1c(SCc2cn(-c3cccc(Cl)c3)nn2)nc(-c2ccccc2)cc1=O [Pyrimidin-4-one-1,2,3-triazole conjugate, 3k]
  IC50: 502 nM

## Cn1c(SCc2cn(-c3ccc(Br)cc3)nn2)nc(-c2ccccc2)cc1=O [Pyrimidin-4-one-1,2,3-triazole conjugate, 3a]
  IC50: 744 nM

## Cn1c(SCc2cn(-c3ccccc3Br)nn2)nc(-c2ccccc2)cc1=O [Pyrimidin-4-one-1,2,3-triazole conjugate, 3c]
  IC50: 437 nM

## Cn1c(SCc2cn(-c3ccccc3Cl)nn2)nc(-c2ccccc2)cc1=O [Pyrimidin-4-one-1,2,3-triazole conjugate, 3m]
  IC50: 577 nM

## CCOc1ccc(-n2cc(CSc3nc(-c4ccccc4)cc(=O)n3C)nn2)cc1 [Pyrimidin-4-one-1,2,3-triazole conjugate, 3h]
  IC50: 1440 nM

## Cn1c(SCc2cn(-c3ccccc3)nn2)nc(-c2ccccc2)cc1=O [Pyrimidin-4-one-1,2,3-triazole conjugate, 3e]
  IC50: 916 nM

## Cn1c(SCc2cn(-c3ccc(F)cc3)nn2)nc(-c2ccccc2)cc1=O [Pyrimidin-4-one-1,2,3-triazole conjugate, 3b]
  IC50: 200 nM

## Cn1c(SCc2cn(-c3cccc([N+](=O)[O-])c3)nn2)nc(-c2ccccc2)cc1=O [Pyrimidin-4-one-1,2,3-triazole conjugate, 3r]
  IC50: 153 nM

## Cn1c(SCc2cn(-c3ccc([N+](=O)[O-])cc3)nn2)nc(-c2ccccc2)cc1=O [Pyrimidin-4-one-1,2,3-triazole conjugate, 3q]
  IC50: 587 nM

## COc1ccccc1-n1cc(CSc2nc(-c3ccccc3)cc(=O)n2C)nn1 [Pyrimidin-4-one-1,2,3-triazole conjugate, 3i]
  IC50: 1310 nM

## Cn1c(SCc2cn(-c3cccnc3)nn2)nc(-c2ccccc2)cc1=O [Pyrimidin-4-one-1,2,3-triazole conjugate, 3l]
  IC50: 1740 nM

## Cc1ccc(-n2cc(CSc3nc(-c4ccccc4)cc(=O)n3C)nn2)cc1C [Pyrimidin-4-one-1,2,3-triazole conjugate, 3n]
  IC50: 82 nM

## Cn1c(SCc2cn(-c3ccccc3F)nn2)nc(-c2ccccc2)cc1=O [Pyrimidin-4-one-1,2,3-triazole conjugate, 3j]
  IC50: 122 nM

## COc1ccc(-n2cc(CSc3nc(-c4ccccc4)cc(=O)n3C)nn2)cc1 [Pyrimidin-4-one-1,2,3-triazole conjugate, 3o]
  IC50: 1140 nM

## Cn1c(SCc2cn(-c3ccc(Cl)cc3)nn2)nc(-c2ccccc2)cc1=O [Pyrimidin-4-one-1,2,3-triazole conjugate, 3p]
  IC50: 1560 nM

## CCc1ccc(-n2cc(CSc3nc(-c4ccccc4)cc(=O)n3C)nn2)cc1 [Pyrimidin-4-one-1,2,3-triazole conjugate, 3g]
  IC50: 94 nM

## Cc1ccccc1-n1cc(CSc2nc(-c3ccccc3)cc(=O)n2C)nn1 [Pyrimidin-4-one-1,2,3-triazole conjugate, 3d]
  IC50: 302 nM

## Cn1c(SCc2cn(-c3ccc(C(C)(C)C)cc3)nn2)nc(-c2ccccc2)cc1=O [Pyrimidin-4-one-1,2,3-triazole conjugate, 3f]
  IC50: 1340 nM
